Results published in patent publication US10472334B2, “Small molecules for inhibiting male fertility” (The University of North Carolina at Chapel Hill, priority 2014, dated 2019).

Experiments:
[1] = In vitro absorption, Caco-2 permeability and recovery; type: in vitro ADME; details: human, Caco-2; read-out: permeability to Caco-2 cells
Method: (§1) The in vitro absorption was measured using methods described in Hidalgo, I. J. et al. (1989), Gastroenterology, 96: 736-749.
(§2) The apparent permeability coefficient (Papp) of the test compound was calculated as follows:
(§3) [formula] where VR is the volume of the receiver chamber. CR, end is the concentration of the test compound in the receiver chamber at the end time point, Δt is the incubation time and A is the surface area of the cell monolayer. CD, mid is the calculated mid-point concentration of the test compound in the donor side, which is the mean value of the donor concentration at time 0 minute and the donor concentration at the end time point. CR, mid is the mid-point concentration of the test compound in the receiver side, which is one half of the receiver concentration at the end time point. Concentrations of the test compound were expressed as peak areas of the test compound.
(§4) The recovery of the test compound was calculated as follows: […]
(§5) where VD and VR are the volumes of the donor and receiver chambers, respectively. CD,end is the concentration of the test compound in the donor sample at the end time point. CR,end is the concentration of the test compound in the receiver sample at the end time point. CD0 is the concentration of the test compound in the donor sample at time zero. Concentrations of the test compound are expressed as peak areas of the test compound. […]

Caco-2 cells = test: as above; type: in vitro ADME
Method: as §1, §2, §3, §4, §5

## CCOC(=O)CSc1nc(NNC(=O)OC)nc(Nc2ccc(NC(=O)OC)c(O)c2)n1 [TZ4_121, [4-(3-Hydroxy-4-methoxycarbonylamino-phenylamino)-6-(N′methoxycarbonyl-hydrazino)-1,3,5-triazin-2-ylsulfanyl]-acetic acid ethyl ester]
[1]
  Papp: 0.2 ×10⁻⁶ cm/s
Caco-2 cells
  Recovery from the permeability assay: 93%
